Measurements reported in patent US8546421B1, “Oncogenic-RAS-signal dependent lethal compounds” (The Trustees of Columbia University in the City of New York, priority 2007, dated 2013).
“And” between values parts separate entries of the source, which are not always exact repeats. Equal values may be shown once. “Also recorded” adds a separate entry of the source.

How the values were obtained:
HT1080 cells = assay: Alamar blue assay with bioactive suppressors in HT1080; type: cell-based, human; conditions: 150 μM DFOM, 10 μM U0126, 50 μM SU6656, or 100 μM Vitamin E
Method: (§1) On the day of experiment, assay plates were prepared by seeding 3,000 HT1080, HT1080-pLKO, HT1080-TfR1 KD, Calu-1, Calu-1-pLKO, or Calu-1-509 cells per well in 36 μL of growth media to black, clear bottom 384-well plates. Also, assay plates were prepared by seeding 1,500 shRNA infected HT1080 or Calu-1 cells per well. Cells in assay plates were treated with each lethal compound in a 2-fold dilution series by transferring 4 μL solution from a 10× lethal plate of Erastin, Compound 3, Compound 27, or Compound 36. […] Percent growth inhibition (% GI) was calculated using fluorescence intensity values.

[1] = tested on: Calu-1 cells expressing shRNAs targeting HRAS, NRAS or KRAS; assay: Drug sensitivity after shRNA knockdown of RAS; type: cell-based, human; conditions: alamar blue
Method: On day one, 3×10^5 Calu-1 cells or 2×10^5 HT1080 cells were seeded in 10-cm dishes; on day 2, frozen virus stock was thawed at 37° C., hexadimethrine bromide (polybrene) (Sigma, cat.#H9268) was added to the virus solution at a final concentration of 8 μg/mL and growth media from cell culture was replaced with the virus/polybrene mixture. The culture was returned to the tissue culture incubator for 2 hours, with rocking of the dishes every 30 min in order to prevent drying. After 2 h, 10 mL growth medium was added, the culture was incubated for 2 days, and cells stably expressing shRNA were selected by adding puromycin (Sigma, cat.#P9620) at a final concentration of 1.5 μg/mL.
as §1

[2] = tested on: BJeH, BJeHLT, BJeLR and DRD cells; assay: Cell growth inhibition by stereoisomers of Compound 27; conditions: Homo sapiens
[3] = Maximum tolerated dose in mice; type: in vivo; conditions: mouse, in vivo, ip, single intraperitoneal injection in sterile PBS
Method: (§2) The maximum tolerated dose of Compound 27 was tested in mice.
(§3) Each mouse in the study was administered a single intraperitoneal injection of Compound 27 dissolved in sterile PBS at 100 mg/kg, 200 mg/kg, or 400 mg/kg.

mice = assay: Maximum tolerated dose in mice; type: in vivo; conditions: single intraperitoneal injection at 100, 200 or 400 mg/kg
Method: as §2, §3

U251 = assay: NCI60 anti-cancer screening; conditions: for GI50 / CC50: Homo sapiens; for GI50: U-251; for CC50: U-251, read-out: LC 50%; for GI 100%: U251, CNS Cancer
A549/ATCC = assay: NCI60 anti-cancer screening; conditions: for GI 100%: A549/ATCC, Non-small cell lung carcinoma; for GI50 / CC50: Homo sapiens; for GI50: A549; for CC50: A549, read-out: LC 50%
SF-295 = assay: NCI60 anti-cancer screening; conditions: for GI50 / CC50: Homo sapiens; for GI50 / GI 100%: SF-295; for CC50: SF-295, read-out: LC 50%; for GI 100%: CNS Cancer
HCT-15 = assay: NCI60 anti-cancer screening; conditions: for GI 100% / GI50: HCT-15; for GI 100%: Colon Cancer; for GI50 / CC50: Homo sapiens; for CC50: HCT-15, read-out: LC 50%
[4] = tested on: 60 different human cancer cell lines (the NCI60 panel); assay: NCI60 anti-cancer screening, whole panel; type: cell-based
Method: NCI60 anti-cancer screening (“NCI60 test”) is a system that provides an opportunity to assess a drug candidate's potency and selectivity at a relatively early stage of drug discovery. […] Such compounds would be expected to kill sensitive cancer cells while having minimal effect on healthy cells in a predetermined concentration range. NCI60 anti-cancer screening makes use of 60 cancer cell lines from different human tissue origins. Cells are seeded on a 96-well plate, treated with lethal compounds in 5-point, 10-fold dilution series pattern starting at 100 μM (i.e. 10 nM, 100 nM, 1 μM, 10 μM, 100 μM) for 2 days, and measured for cell viability using sulforhodamine B dye. The optical densities of treated samples are determined using a plate reader and percent growth value is calculated by processing the optical density value.
The entire NCI60 test is replicated at least twice to ensure consistency of the data and to determine accurate GI50, TGI and LC50 values. The panel of results for each candidate compound in the NCI60 test is known as the “sensitivity profile.”

IGROV1 = assay: NCI60 anti-cancer screening; conditions: for GI50 / CC50: Homo sapiens; for GI50: IGROV-1; for CC50: IGROV-1, read-out: LC 50%; for GI 100%: IGROV1, Ovarian Cancer
CAKI-1 = assay: NCI60 anti-cancer screening; conditions: for GI 100% / GI50: CAKI-1; for GI 100%: Renal Cancer; for GI50 / CC50: Homo sapiens; for CC50: CAKI-1, read-out: LC 50%
HOP-62 = assay: NCI60 anti-cancer screening; type: cell-based; conditions: Non-small cell lung carcinoma
[5] = tested on: BJ-TERT/LT/ST/RAS^V12 cells; assay: Effect of cell cycle inhibitors on Compound 36-induced cell death; type: cell-based, human; conditions: apigenin, monastrol, olomoucine, nocodazole, hydroxyurea, colchicine, rapamycin
Method: BJ-TERT/LT/ST/RAS^V12 cells were seeded in a 384-well assay plate at a concentration of 4,000 cells per well in 32 μL culture volume. Cells were treated with cell cycle inhibitors by transferring 4 μL of 500 μM apigenin (Sigma, cat.#A3145), 1.5 mM monastrol (Sigma, cat.#M8515), 1 mM olomoucine (Sigma, cat.#00886), 2 μM Nocodazole (Sigma, cat.#M1404), 6 mM Hydroxy-urea (Sigma, cat.#H8627), 0.1 μM colchicine (Sigma, cat.#D6165), or 50 μM Rapamycine (Sigma, cat.#RO395) in growth media to the assay plate. […] The assay plate was incubated for 24 hours and alamar blue was added to the assay plate at a final concentration of 10%.

| SMILES | GI50 (U251) [nM] | CC50 (U251) [nM] | GI 100% (U251) [µM] | GI 100% (A549/ATCC) [µM] | GI50 (A549/ATCC) [nM] | CC50 (A549/ATCC) [nM] | GI50 (SF-295) [nM] | CC50 (SF-295) [nM] | GI 100% (SF-295) [µM] | GI 100% (HCT-15) [µM] | GI50 (HCT-15) [nM] | CC50 (HCT-15) [nM] | GI50 (IGROV1) [nM] | CC50 (IGROV1) [nM] | GI 100% (IGROV1) [µM] | GI 100% (CAKI-1) [µM] | GI50 (CAKI-1) [nM] | CC50 (CAKI-1) [nM] | further results |
| --- | --- | --- | --- | --- | --- | --- | --- | --- | --- | --- | --- | --- | --- | --- | --- | --- | --- | --- | --- |
| COC(=O)c1ccc(C2c3[nH]c4ccccc4c3CC(C(=O)OC)N2C(=O)CCl)cc1 (centres unmarked) [Compound 27] | 1100 | 4790 | 2.3 | >10 | 2510 | > 10000 | 1100 | 8060 | 2.97 | 2.83 | 1450 | 5540 | 20.9 | 270 | 0.0571 | 0.0381 | 21.1 | 68.7 | treatments that inhibit compound-induced cell death in HT1080 cells (HT1080 cells): iron chelators, MEK inhibitors or non-receptor tyrosine kinase inhibitors effectively inhibited; sensitivity of Calu-1 cells after RAS shRNA compared with parental cells [1]: more resistant; also recorded: less effective; EC50 [2]: ~0.05 µg/mL and ~100 nM; MTD [3]: > 400 mg/kg; mortality (mice): None of the mice died; difference in sensitivity between resistant and sensitive cell lines [4]: up to 10^4 fold; potency / selectivity in NCI60 (in words) [4]: nanomolar (nM) concentration range |
| C=C1CCC2C(C)(C)CCC[C@]2(C)C1CC/C(C)=C\CC/C(C)=N/NC(N)=S (some centres unmarked) [Compound 36] | 470 | 4120 | 1.7 | 2.4 | 1110 | 5150 | 1190 | 5330 | 2.52 | 1.53 | 305 | 3930 | 254 | 4170 | 1.28 | 0.413 | 165 | 1080 | GI50 (HOP-62; Homo sapiens): 405 nM; LC50 (HOP-62; Homo sapiens): 3770 nM; GI 100% (HOP-62): 1.42 µM; effect of cell cycle blockers on compound-induced cell death [5]: None of cell cycle blockers were effective |
